Patent publication US8686044B2, “Amide derivative, pest control agent containing the amide derivative, and use of the amide derivative” (Mitsui Chemicals Agro, Inc., priority 2008, dated 2014)

Experiments:
Assay type in all cases: in vivo
[1] = tested on: Spodoptera litura; test: Pesticidal test against Spodoptera litura (cabbage leaf dip); details: foliar, 144 h, concentration 1 ppm, 2-stage larvae, examined after 6 days, 25° C., read-out: pesticidal rate
Summary of the method: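 Cabbage leaf pieces dipped 30 seconds in compound solution at a predetermined concentration and air-dried, then offered to second-stage larvae, five per group in two replicates. Held at 25° C. Living and dead larvae counted after 6 days.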

[2] = tested on: Musca domestica; test: Pesticidal test against Musca domestica (petri dish dry film); details: 24 h, concentration 100 ppm, female adults, examined after 1 day, 25° C., read-out: pesticidal rate
Summary of the method: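 Dry film from 1 ml acetone solution of compound at a predetermined concentration, air-dried in a 9 cm petri dish; female adult flies released and dish capped. Held at 25° C; living and dead counted after 1 day. Five insects per group, two replicates.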

[3] = tested on: Blattella germanica; test: Pesticidal test against Blattella germanica (petri dish dry film); details: 24 h, concentration 100 ppm, female adults, examined after 1 day, 25° C., read-out: pesticidal rate
Protocol: Pesticidal Test against Blattella germanica
1 ml of an acetone solution in which a test compound had been prepared at a predetermined concentration was added dropwise to a petri dish having a diameter of 9 cm, and air-dried, and then the female adults of Blattella germanica were released and the petri dish was capped. They were left to stand in a thermostatic chamber at 25° C., and the numbers of the living pests and the dead pests were examined after 1 day. The test was carried out with five larvae per group in two replicates.

[4] = tested on: Plutella xylostella; test: Pesticidal test against Plutella xylostella (cabbage leaf dip); details: foliar, 144 h, concentration 1 ppm, 2-stage larvae, examined after 6 days, 25° C., read-out: pesticidal rate
Summary of the method: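 Cabbage leaf pieces dipped 30 s in test solution at a predetermined concentration, air-dried, then offered to 2nd-instar larvae, five per group in duplicate. Held at 25° C; living and dead larvae counted after 6 days.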

[5] = tested on: Laodelphax striatellus; test: Pesticidal test against Laodelphax striatellus (rice seedling spray); details: 144 h, concentration 100 ppm, 3-stage larvae, examined after 6 days, 25° C., read-out: pesticidal rate
Summary of the method: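 Rice seedlings sprayed with 2.5 ml acetone solution of compound at a predetermined concentration, air-dried, then infested with third-stage Laodelphax striatellus larvae in capped water-containing tubes at 25 °C. Living and dead insects counted after 6 days; ten larvae per group, two replicates.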

N#Cc1ccc(C(=O)Nc2c(Br)cc(C(F)(C(F)(F)F)C(F)(F)F)cc2C(F)(F)F)c(F)c1NC(=O)c1ccccc1 [1-1925]
≥ 70%: pest or weed control at 1 ppm [1] | pest or weed control at 100 ppm [2] | pest or weed control at 100 ppm [3] | pest or weed control at 1 ppm [4]

O=C(Nc1c(Br)cc(C(F)(C(F)(F)F)C(F)(F)C(F)(F)F)cc1Br)c1cccc(NC(=O)c2ccccc2F)c1 (stereo not drawn) [6-39]
≥ 70%: pest or weed control at 1 ppm [1] | pest or weed control at 100 ppm [2] | pest or weed control at 100 ppm [3] | pest or weed control at 1 ppm [4] | pest or weed control at 100 ppm [5]

O=C(Nc1c(Br)cc(C(F)(C(F)(F)F)C(F)(F)C(F)(F)F)cc1Br)c1cccc(NC(=O)c2c(F)cccc2F)c1 (stereo not drawn) [6-47]
≥ 70%: pest or weed control at 1 ppm [1] | pest or weed control at 100 ppm [2] | pest or weed control at 100 ppm [3] | pest or weed control at 1 ppm [4] | pest or weed control at 100 ppm [5]

O=C(Nc1cccc(C(=O)Nc2c(Br)cc(C(F)(C(F)(F)F)C(F)(F)C(F)(F)F)cc2C(F)(F)F)c1)c1ccccc1 (stereo not drawn) [6-346]
≥ 70%: pest or weed control at 1 ppm [1] | pest or weed control at 100 ppm [2] | pest or weed control at 100 ppm [3] | pest or weed control at 1 ppm [4] | pest or weed control at 100 ppm [5]

O=C(Nc1c(Br)cc(C(F)(C(F)(F)F)C(F)(F)C(F)(F)F)cc1C(F)(F)F)c1cccc(NC(=O)c2c(F)cccc2F)c1 (stereo not drawn) [6-368]
≥ 70%: pest or weed control at 1 ppm [1] | pest or weed control at 100 ppm [2] | pest or weed control at 100 ppm [3] | pest or weed control at 1 ppm [4] | pest or weed control at 100 ppm [5]

O=C(Nc1cccc(C(=O)Nc2c(Br)cc(C(F)(C(F)(F)F)C(F)(F)F)cc2Br)c1F)c1ccccc1F [6-1105]
≥ 70%: pest or weed control at 1 ppm [1] | pest or weed control at 100 ppm [2] | pest or weed control at 100 ppm [3] | pest or weed control at 1 ppm [4]

O=C(Nc1cccc(C(=O)Nc2c(Br)cc(C(F)(C(F)(F)F)C(F)(F)F)cc2Br)c1F)c1ccc(F)cc1 [6-1107]
≥ 70%: pest or weed control at 1 ppm [1] | pest or weed control at 100 ppm [2] | pest or weed control at 100 ppm [3] | pest or weed control at 1 ppm [4] | pest or weed control at 100 ppm [5]

N#Cc1cccc(C(=O)Nc2cccc(C(=O)Nc3c(Br)cc(C(F)(C(F)(F)F)C(F)(F)F)cc3Br)c2F)c1 [6-1124]
≥ 70%: pest or weed control at 1 ppm [1] | pest or weed control at 100 ppm [2] | pest or weed control at 100 ppm [3] | pest or weed control at 1 ppm [4] | pest or weed control at 100 ppm [5]

N#Cc1ccc(C(=O)Nc2cccc(C(=O)Nc3c(Br)cc(C(F)(C(F)(F)F)C(F)(F)F)cc3Br)c2F)cc1 [6-1125]
≥ 70%: pest or weed control at 1 ppm [1] | pest or weed control at 100 ppm [2] | pest or weed control at 100 ppm [3] | pest or weed control at 1 ppm [4]

O=C(Nc1c(Br)cc(C(F)(C(F)(F)F)C(F)(F)F)cc1Br)c1cccc(NC(=O)c2c(F)cccc2F)c1F [6-1126]
≥ 70%: pest or weed control at 1 ppm [1] | pest or weed control at 100 ppm [2] | pest or weed control at 100 ppm [3] | pest or weed control at 1 ppm [4] | pest or weed control at 100 ppm [5]

O=C(Nc1cccc(C(=O)Nc2c(Br)cc(C(F)(C(F)(F)F)C(F)(F)F)cc2Br)c1F)c1ccc(Cl)nc1 [6-1147]
≥ 70%: pest or weed control at 1 ppm [1] | pest or weed control at 100 ppm [2] | pest or weed control at 100 ppm [3] | pest or weed control at 1 ppm [4] | pest or weed control at 100 ppm [5]

O=C(Nc1cccc(C(=O)Nc2c(Br)cc(C(F)(C(F)(F)F)C(F)(F)C(F)(F)F)cc2Br)c1F)c1cccc(F)c1 (stereo not drawn) [6-1184]
≥ 70%: pest or weed control at 1 ppm [1] | pest or weed control at 100 ppm [2] | pest or weed control at 100 ppm [3] | pest or weed control at 1 ppm [4] | pest or weed control at 100 ppm [5]

O=C(Nc1c(Br)cc(C(F)(C(F)(F)F)C(F)(F)C(F)(F)F)cc1Br)c1cccc(NC(=O)c2c(F)cccc2F)c1F (stereo not drawn) [6-1204]
≥ 70%: pest or weed control at 1 ppm [1] | pest or weed control at 100 ppm [2] | pest or weed control at 100 ppm [3] | pest or weed control at 1 ppm [4] | pest or weed control at 100 ppm [5]

O=C(Nc1cccc(C(=O)Nc2c(Br)cc(C(F)(C(F)(F)F)C(F)(F)C(F)(F)F)cc2Br)c1F)c1cccnc1Cl (stereo not drawn) [6-1218]
≥ 70%: pest or weed control at 1 ppm [1] | pest or weed control at 100 ppm [2] | pest or weed control at 100 ppm [3] | pest or weed control at 1 ppm [4] | pest or weed control at 100 ppm [5]

N#Cc1cccc(C(=O)Nc2cccc(C(=O)Nc3c(I)cc(C(F)(C(F)(F)F)C(F)(F)F)cc3I)c2F)c1 [6-1280]
≥ 70%: pest or weed control at 1 ppm [1] | pest or weed control at 100 ppm [3] | pest or weed control at 1 ppm [4] | pest or weed control at 100 ppm [5]

O=C(Nc1cccc(C(=O)Nc2c(I)cc(C(F)(C(F)(F)F)C(F)(F)F)cc2I)c1F)c1cccnc1Cl [6-1296]
≥ 70%: pest or weed control at 1 ppm [1] | pest or weed control at 100 ppm [3] | pest or weed control at 1 ppm [4] | pest or weed control at 100 ppm [5]

O=C(Nc1cccc(C(=O)Nc2c(I)cc(C(F)(C(F)(F)F)C(F)(F)C(F)(F)F)cc2I)c1F)c1ccccc1 (stereo not drawn) [6-1338]
≥ 70%: pest or weed control at 1 ppm [1] | pest or weed control at 100 ppm [2] | pest or weed control at 100 ppm [3] | pest or weed control at 1 ppm [4] | pest or weed control at 100 ppm [5]

O=C(Nc1cccc(C(=O)Nc2c(Br)cc(C(F)(C(F)(F)F)C(F)(F)F)cc2C(F)(F)F)c1F)c1ccccc1F [6-1575]
≥ 70%: pest or weed control at 1 ppm [1] | pest or weed control at 100 ppm [2] | pest or weed control at 100 ppm [3] | pest or weed control at 1 ppm [4] | pest or weed control at 100 ppm [5]

O=C(Nc1cccc(C(=O)Nc2c(Br)cc(C(F)(C(F)(F)F)C(F)(F)F)cc2C(F)(F)F)c1F)c1cccnc1Cl [6-1610]
≥ 70%: pest or weed control at 1 ppm [1] | pest or weed control at 100 ppm [3] | pest or weed control at 1 ppm [4] | pest or weed control at 100 ppm [5]

O=C(Nc1cccc(C(=O)Nc2c(Br)cc(C(F)(C(F)(F)F)C(F)(F)F)cc2C(F)(F)F)c1F)c1ccc(Cl)nc1 [6-1617]
≥ 70%: pest or weed control at 1 ppm [1] | pest or weed control at 100 ppm [2] | pest or weed control at 100 ppm [3] | pest or weed control at 1 ppm [4] | pest or weed control at 100 ppm [5]

O=C(Nc1cccc(C(=O)Nc2c(I)cc(C(F)(C(F)(F)F)C(F)(F)F)cc2C(F)(F)F)c1F)c1ccccc1F [6-1731]
≥ 70%: pest or weed control at 1 ppm [1] | pest or weed control at 100 ppm [2] | pest or weed control at 100 ppm [3] | pest or weed control at 1 ppm [4] | pest or weed control at 100 ppm [5]

O=C(Nc1c(I)cc(C(F)(C(F)(F)F)C(F)(F)F)cc1C(F)(F)F)c1cccc(NC(=O)c2c(F)cccc2F)c1F [6-1752]
≥ 70%: pest or weed control at 1 ppm [1] | pest or weed control at 100 ppm [2] | pest or weed control at 100 ppm [3] | pest or weed control at 1 ppm [4] | pest or weed control at 100 ppm [5]

O=C(Nc1cccc(C(=O)Nc2c(I)cc(C(F)(C(F)(F)F)C(F)(F)F)cc2C(F)(F)F)c1F)c1ccc(Cl)nc1 [6-1773]
≥ 70%: pest or weed control at 1 ppm [1] | pest or weed control at 100 ppm [2] | pest or weed control at 100 ppm [3] | pest or weed control at 1 ppm [4] | pest or weed control at 100 ppm [5]

O=C(Nc1cccc(C(=O)Nc2c(Br)cc(C(F)(C(F)(F)F)C(F)(F)C(F)(F)F)cc2Br)c1)c1cccc(F)c1 (stereo not drawn) [6-5905]
≥ 70%: pest or weed control at 1 ppm [1] | pest or weed control at 100 ppm [2] | pest or weed control at 100 ppm [3] | pest or weed control at 1 ppm [4] | pest or weed control at 100 ppm [5]

CN(C(=O)c1cccnc1Cl)c1cccc(C(=O)Nc2c(Br)cc(C(F)(C(F)(F)F)C(F)(F)C(F)(F)F)cc2Br)c1 (stereo not drawn) [7-57]
≥ 70%: pest or weed control at 1 ppm [1] | pest or weed control at 100 ppm [2] | pest or weed control at 100 ppm [3] | pest or weed control at 1 ppm [4] | pest or weed control at 100 ppm [5]

CN(C(=O)c1cccnc1Br)c1cccc(C(=O)Nc2c(Br)cc(C(F)(C(F)(F)F)C(F)(F)F)cc2C(F)(F)F)c1 [7-305]
≥ 70%: pest or weed control at 1 ppm [1] | pest or weed control at 100 ppm [3] | pest or weed control at 1 ppm [4] | pest or weed control at 100 ppm [5]

CN(C(=O)c1ccccc1F)c1cccc(C(=O)Nc2c(Br)cc(C(F)(C(F)(F)F)C(F)(F)C(F)(F)F)cc2C(F)(F)F)c1 (stereo not drawn) [7-347]
≥ 70%: pest or weed control at 1 ppm [1] | pest or weed control at 100 ppm [3] | pest or weed control at 1 ppm [4]

CN(C(=O)c1ccc(F)cc1)c1cccc(C(=O)Nc2c(Br)cc(C(F)(C(F)(F)F)C(F)(F)C(F)(F)F)cc2C(F)(F)F)c1 (stereo not drawn) [7-349]
≥ 70%: pest or weed control at 1 ppm [1] | pest or weed control at 100 ppm [2] | pest or weed control at 100 ppm [3] | pest or weed control at 1 ppm [4]

CN(C(=O)c1ccc(C#N)cc1)c1cccc(C(=O)Nc2c(Br)cc(C(F)(C(F)(F)F)C(F)(F)C(F)(F)F)cc2C(F)(F)F)c1 (stereo not drawn) [7-367]
≥ 70%: pest or weed control at 1 ppm [1] | pest or weed control at 100 ppm [2] | pest or weed control at 100 ppm [3] | pest or weed control at 1 ppm [4]

CN(C(=O)c1ccccc1F)c1cccc(C(=O)Nc2c(I)cc(C(F)(C(F)(F)F)C(F)(F)F)cc2I)c1F [7-1261]
≥ 70%: pest or weed control at 1 ppm [1] | pest or weed control at 100 ppm [3] | pest or weed control at 1 ppm [4] | pest or weed control at 100 ppm [5]
